# In patent US7622471B2, “Pyrazole derivatives having a pyridazine and pyridine functionality” (Daiichi Pharmaceutical Co., Ltd., priority 2003, dated 2009):
# Like-named read-outs stand apart in the source and are kept apart here.
# Tests used:
# [1] = not dose-dependent; cited from earlier work
# [2] = test system: collagen-induced platelet aggregation; conditions: prior-art compound, cited from earlier work
# [3] = test system: collagen-induced platelet aggregation; assay: Platelet aggregation-inhibiting action (collagen-induced aggregation of human platelet rich plasma); type: cell-based; conditions: human PRP, read-out: Inhibition of collagen-induced platelet aggregation, IC50
# Description: Human blood was collected in the presence of 3.13% sodium citrate as an anticoagulant in a volume 1/10 the blood volume. The collected blood was centrifuged at 180 g for 10 minutes so as to separate the upper layer; i.e., platelet rich plasma (PRP) from the blood. The remaining lower layer was further centrifuged at 1600 g for 10 minutes, and platelet poor plasma (PPP); i.e., the thus-obtained upper layer, was collected. A solution (1 μL) of the inventive compound was added to PRP (200 μL), and the mixture was allowed to stand at 37° C. for 2 minutes. Subsequently, collagen (2 μL) was added to the resultant mixture so as to induce platelet aggregation. Percent platelet aggregation was measured by means of PAM-12C(SSR Engineering). Optical transmittance of PPP was employed as the value reflecting the state in which 100% coagulation occurred. Percent platelet aggregation values of PRP were determined at a series of concentrations of each Example compound. From the determined values, IC50 with respect to each compound was calculated.
# cyclooxygenase-1 (COX-1) = target: T1, cyclooxygenase-1 (COX-1) (Ovis aries, UniProt P05979); assay: Inhibitory effect on COX-1 (COX Inhibitor Screening Assay Kit, PGF2α ELISA); type: biochemical; conditions: 50 μM compound
# T1 construct: purchased Cayman Chemical Company 560101 and 560121
# T1 sequence (P05979 25-600): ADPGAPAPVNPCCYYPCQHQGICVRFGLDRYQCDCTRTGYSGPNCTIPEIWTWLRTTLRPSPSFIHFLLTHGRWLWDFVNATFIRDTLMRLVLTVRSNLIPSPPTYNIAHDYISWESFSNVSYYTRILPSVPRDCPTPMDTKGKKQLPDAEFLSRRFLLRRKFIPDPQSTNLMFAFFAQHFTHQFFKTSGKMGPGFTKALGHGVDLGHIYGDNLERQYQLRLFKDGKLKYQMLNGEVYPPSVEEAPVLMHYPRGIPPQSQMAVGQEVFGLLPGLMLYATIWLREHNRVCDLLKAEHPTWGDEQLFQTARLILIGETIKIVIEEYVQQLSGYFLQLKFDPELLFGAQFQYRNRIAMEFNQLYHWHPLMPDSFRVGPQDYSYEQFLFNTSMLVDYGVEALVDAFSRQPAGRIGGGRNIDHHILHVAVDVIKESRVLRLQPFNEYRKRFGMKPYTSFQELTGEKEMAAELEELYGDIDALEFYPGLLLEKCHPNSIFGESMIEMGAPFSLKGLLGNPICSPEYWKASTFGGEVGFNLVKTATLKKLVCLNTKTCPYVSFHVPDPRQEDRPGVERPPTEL
# Description: (§1) Inhibitory activity against COX-1 and COX-2 of the compounds produced in the Examples was measured using a COX Inhibitor Screening Assay Kit (product of Cayman Chemical Company, Catalog Nos. 560101 and 560121).
# (§2) Before starting the measurement, reaction buffer, heme, arachidonic acid, SnCl2, EIA buffer, washing buffer, prostaglandin (PG) screening EIA standard, PG screening acetylcholine esterase (AchE), tracer (chromogenic enzyme […] conjugate), and PG screening EIA antiserum were prepared ready for use.
# (§3) (1) Production of PGF2α in the Presence of COX-1 or COX-2
# (§4) A reaction mixture containing the compound of the Examples (50 μM) and COX-1 or COX-2 was incubated at 37° C. for 10 minutes. Arachidonic acid (10 μL) was added thereto, and the resultant mixture was further incubated at 37° C. for 2 minutes. 1N-Hydrochloric acid (50 μL) was added to the reaction mixture, to thereby stop the reaction. SnCl2 solution (100 μL) was added thereto, and the resultant mixture was kept at room temperature for 5 minutes.
# (§5) (2) Quantitative Determination of PGF2α through ELISA
# (§6) Antiserum (rabbit anti-PGF2αantibody, 50 μL) was added to the wells of 96 well plate that had been coated with mouse anti-rabbit IgG. A solution of PGF2α-containing mixture obtained above (2000-fold dilution, 50 μL) and AchE tracer (50 μL) were added to the well in this order, and the mixture was incubated at room temperature for 18 hours. The wells were washed 5 times with the washing buffer to remove an excessive AchE tracer, and Ellman reagent (200 μL) was added. After keeping the plate in a dark room for 60 minutes, absorbance at 405 nm was measured.
# (§7) (3) Calculation of Inhibitory Activity of the Compound of the Examples
# (§8) A calibration curve was obtained by use of the PG screening EIA standard, and the production amount of PGF2α was determined from the absorbance. Percent inhibition of COX-1 or COX-2 activity at 50 μM of the compound of the Examples was calculated.
# cyclooxygenase-2 (COX-2) = target: T2, cyclooxygenase-2 (COX-2) (Homo sapiens, UniProt P35354); assay: Inhibitory effect on COX-2 (COX Inhibitor Screening Assay Kit, PGF2α ELISA); type: biochemical; conditions: 50 μM compound
# T2 construct: purchased Cayman Chemical Company 560101 and 560121
# T2 sequence (P35354 18-604): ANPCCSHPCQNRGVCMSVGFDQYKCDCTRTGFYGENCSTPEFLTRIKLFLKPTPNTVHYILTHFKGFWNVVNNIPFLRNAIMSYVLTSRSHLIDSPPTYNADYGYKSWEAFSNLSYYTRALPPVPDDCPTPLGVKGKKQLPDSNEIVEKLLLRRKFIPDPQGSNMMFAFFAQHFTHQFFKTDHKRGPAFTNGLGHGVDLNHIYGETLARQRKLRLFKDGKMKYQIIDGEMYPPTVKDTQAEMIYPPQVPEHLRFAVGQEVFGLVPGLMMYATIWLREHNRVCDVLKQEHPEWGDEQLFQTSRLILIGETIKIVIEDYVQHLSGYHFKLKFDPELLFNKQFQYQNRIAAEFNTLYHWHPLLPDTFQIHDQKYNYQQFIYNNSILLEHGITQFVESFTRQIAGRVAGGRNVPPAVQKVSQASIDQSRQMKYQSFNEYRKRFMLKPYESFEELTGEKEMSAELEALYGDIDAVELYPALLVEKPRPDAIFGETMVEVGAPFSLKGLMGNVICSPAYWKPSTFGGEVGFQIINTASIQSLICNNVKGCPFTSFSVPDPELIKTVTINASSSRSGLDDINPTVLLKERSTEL
# Description: as §1, §2, §3, §4, §5, §6, §7, §8
IC50 [3],Compound,Inhibitory effect against COX-1 at 50 μM (% inhibition) (cyclooxygenase-1 (COX-1)),Inhibitory effect against COX-2 at 50 μM (% inhibition) (cyclooxygenase-2 (COX-2)),other results
–,CC(=O)Oc1ccccc1C(=O)O [Aspirin],–,–,rate of side effects such as hemorrhage in gastrointestine (aspirin-induced ulcer) [1]: about 1 per 100 patients
–,CS(=O)(=O)c1ccc(-c2cc(C#N)nn2-c2ccc(F)cc2)cc1 [Compound (A)],–,–,IC50 ([2]; read-out: IC50 value against collagen-induced platelet aggregation): 5300 nM
140 nM,"COc1ccc(-n2nc(C(=O)N3CCOCC3)cc2-c2ccccn2)cn1 [Example 36, 4-[1-(6-Methoxy-3-pyridyl)-5-(2-pyridyl)pyrazole-3-carbonyl]morpholine]",–,–,–
35 nM,"COc1ccc(-n2nc(C(=O)N3CCN(C4CC4)CC3)cc2-c2ccccn2)cn1 [Example 55, 1-[1-(6-Methoxy-3-pyridyl)-5-(2-pyridyl)pyrazole-3-carbonyl]-4-cyclopropylpiperazine]",–,–,–
260 nM,"COc1ccc(-n2nc(C(=O)N3CC(N(C)C)C3)cc2-c2ccccc2)cn1 [Example 70, 1-[1-(6-Methoxy-3-pyridyl)-5-phenylpyrazole-3-carbonyl]-3-dimethylaminoazetidine]",–,–,–
110 nM,"COc1ccc(-n2nc(C(=O)N3CCCC(F)(F)C3)cc2-c2ccccn2)nn1 [Example 140, 1-[1-(6-Methoxy-3-pyridazinyl)-5-(2-pyridyl)pyrazole-3-carbonyl]-3,3-difluoropiperidine]",–,–,–
90 nM,"COc1ccc(-n2nc(C(=O)N3CCN(C)CC3)cc2-c2cnccn2)cn1 [Example 148, 1-[1-(6-Methoxy-3-pyridyl)-5-(2-pyrazinyl)pyrazole-3-carbonyl]-4-methylpiperazine]",–,–,–
170 nM,"COc1ccc(-n2nc(C(=O)N3CCCOCC3)cc2-c2ccccn2)cn1 [Example 160, 4-[1-(6-Methoxy-3-pyridyl)-5-(2-pyridyl)pyrazole-3-carbonyl]-1,4-oxazepane]",–,–,–
90 nM,"COc1ccc(-n2nc(C(=O)N3CCCCN3C(C)=O)cc2-c2ccccn2)cn1 [Example 163, 1-[1-(6-Methoxy-3-pyridyl)-5-(2-pyridyl)pyrazole-3-carbonyl]-2-acetylhexahydropyridazine]",–,–,–
29 nM,"COc1ccc(-n2nc(C(=O)N3CCN(C)CC3)cc2-c2ccc[nH]2)cn1 [Example 167, 1-[1-(6-Methoxy-3-pyridyl)-5-(pyrrol-2-yl)pyrazole-3-carbonyl]-4-methylpiperazine]",–,–,–
17 nM,"COc1ccc(-n2nc(C(=O)N3CCOCC3)cc2-c2ccc[nH]2)cn1 [Example 168, 4-[1-(6-Methoxy-3-pyridyl)-5-(pyrrol-2-yl)pyrazole-3-carbonyl]morpholine]",–,–,–
–,COc1ccc(-c2cc(C(F)F)nn2-c2ccc(S(N)(=O)=O)cc2)cc1F [compound (B)],–,–,platelet aggregation inhibitory activity compared with inhibitory activity against COX-2 ([2]; in words): not so potent

Compound,IC50 [3],Inhibitory effect against COX-1 at 50 μM (% inhibition) (cyclooxygenase-1 (COX-1)),Inhibitory effect against COX-2 at 50 μM (% inhibition) (cyclooxygenase-2 (COX-2)),other results
"COc1ccc(-n2nc(C(=O)N3CCN(C)C(=O)C3)cc2-c2ccccn2)cn1 [Example 23, 1-[1-(6-Methoxy-3-pyridyl)-5 (2-pyridyl)pyrazole-3-carbonyl]-4-methyl-3-oxopiperazine]",170 nM,−1.2 % inhibition,3.4 % inhibition,–
"COc1ccnc(-c2cc(C(=O)N3CCN(C)CC3)nn2-c2ccc(OC)nc2)c1 [Example 27, 1-[1-(6-Methoxy-3-pyridyl)-5-(4-methoxy-2-pyridyl)pyrazole-3-carbonyl]-4-methylpiperazine]",270 nM,0.5 % inhibition,−0.1 % inhibition,–
"COc1ccc(-n2nc(C(=O)N3CCN(C)CC3)cc2-c2ccccc2)cn1 [Example 62, 1-[1-(6-Methoxy-3-pyridyl)-5-phenylpyrazole-3-carbonyl]-4-methylpiperazine]",120 nM,−2.4 % inhibition,−2.6 % inhibition,–
"COc1ccc(-n2nc(C(=O)N3CCCCC3)cc2-c2ccccn2)nn1 [Example 122, 1-[1-(6-Methoxy-3-pyridazinyl)-5-(2-pyridyl)pyrazole-3-carbonyl] piperidine]",750 nM,1 % inhibition,4.5 % inhibition,–
"COc1ccc(-n2nc(C(=O)N3CCN(C)CC3)cc2-c2ccccn2)nn1 [Example 132, 1-[1-(6-Methoxy-3-pyridazinyl)-5-(2-pyridyl)pyrazole-3-carbonyl]-4-methylpiperazine]",400 nM,2.7 % inhibition,10.5 % inhibition,–
"COc1ccc(-n2nc(C(=O)N3CCC(F)(F)CC3)cc2-c2ccccn2)nn1 [Example 139, 1-[1-(6-Methoxy-3-pyridazinyl)-5-(2-pyridyl)pyrazole-3-carbonyl]-4,4-difluoropiperidine]",42 nM,7.6 % inhibition,3.4 % inhibition,–
"COc1cnc(-n2nc(C(=O)N3CCN(C)CC3)cc2-c2ccccn2)cn1 [Example 144, 1-[1-(5-Methoxy-2-pyrazinyl)-5-(2-pyridyl)pyrazole-3-carbonyl]-4-methylpiperazine]",440 nM,9.7 % inhibition,8.8 % inhibition,–
